According to the supplement of paper PMC10307832:

What was measured:
Assay in all cases: relative viability (nuclei count vs DMSO), 5 days (fraction); higher = more cells survive
CX-5461 + Foretinib = compound: Cc1cnc(CNC(=O)c2c(=O)c3ccc(N4CCCN(C)CC4)nc3n3c2sc2ccccc23)cn1 [CX-5461] + COc1cc2c(Oc3ccc(NC(=O)C4(C(=O)Nc5ccc(F)cc5)CC4)cc3F)ccnc2cc1OCCCN1CCOCC1 [Foretinib] (partner 0.25 µM)
Summary of the method: (§1)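 Cells from lung cancer lines were seeded into 1536-well plates and, one day later, dosed by pin tool. Treatments were either a single drug or a fixed dose of an anchor drug with five library-drug doses (not always all listed) in √10 steps. After 5 days, nuclei were stained in a one-step fixation (final 0.05% Triton X-100, 1% formaldehyde, 1 ug/ml Hoechst) and counted on 4× images, and relative viability is the treated-to-vehicle nuclei ratio, as the median of duplicate plates.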

CX-5461 + Crizotinib = compound: Cc1cnc(CNC(=O)c2c(=O)c3ccc(N4CCCN(C)CC4)nc3n3c2sc2ccccc23)cn1 [CX-5461] + C[C@@H](Oc1cc(-c2cnn(C3CCNCC3)c2)cnc1N)c1c(Cl)ccc(F)c1Cl [Crizotinib] (partner 1 µM)
Summary of the method: as §1

CX-5461 + Linsitinib = compound: Cc1cnc(CNC(=O)c2c(=O)c3ccc(N4CCCN(C)CC4)nc3n3c2sc2ccccc23)cn1 [CX-5461] + C[C@]1(O)C[C@@H](c2nc(-c3ccc4ccc(-c5ccccc5)nc4c3)c3c(N)nccn32)C1 [Linsitinib] (partner 1 µM)
Summary of the method: as §1

IMD-0354 + Pictilisib = compound: O=C(Nc1cc(C(F)(F)F)cc(C(F)(F)F)c1)c1cc(Cl)ccc1O [IMD-0354] + CS(=O)(=O)N1CCN(Cc2cc3nc(-c4cccc5[nH]ncc45)nc(N4CCOCC4)c3s2)CC1 [Pictilisib] (partner 1 µM)
Summary of the method: as §1

| Cell Line | relative viability (CX-5461 + Foretinib; first compound 0.01 µM) | relative viability (CX-5461 + Foretinib; first compound 0.03162 µM) | relative viability (CX-5461 + Foretinib; first compound 0.1 µM) | relative viability (CX-5461 + Foretinib; first compound 0.3162 µM) | relative viability (CX-5461 + Foretinib; first compound 1 µM) | relative viability (CX-5461 + Crizotinib; first compound 0.01 µM) | relative viability (CX-5461 + Crizotinib; first compound 0.03162 µM) | relative viability (CX-5461 + Crizotinib; first compound 0.3162 µM) | relative viability (CX-5461 + Crizotinib; first compound 1 µM) | relative viability (CX-5461 + Linsitinib; first compound 0.01 µM) | relative viability (CX-5461 + Linsitinib; first compound 0.03162 µM) | relative viability (CX-5461 + Linsitinib; first compound 0.3162 µM) | relative viability (CX-5461 + Linsitinib; first compound 1 µM) | relative viability (IMD-0354 + Pictilisib; first compound 0.04 µM) | relative viability (IMD-0354 + Pictilisib; first compound 0.1265 µM) | relative viability (IMD-0354 + Pictilisib; first compound 0.4 µM) | relative viability (IMD-0354 + Pictilisib; first compound 1.265 µM) | relative viability (IMD-0354 + Pictilisib; first compound 4 µM) | relative viability (CX-5461 + Crizotinib; first compound 0.1 µM) | relative viability (CX-5461 + Linsitinib; first compound 0.1 µM) |
| --- | --- | --- | --- | --- | --- | --- | --- | --- | --- | --- | --- | --- | --- | --- | --- | --- | --- | --- | --- | --- |
| NCI-H2023 | 0.954 | 0.71 | 0.733 | 0.552 | 0.108 | 0.584 | 0.558 | 0.391 | 0.0858 | 0.661 | 0.744 | 0.599 | 0.162 | 0.301 | 0.255 | 0.202 | 0.0996 | 0.0899 | – | – |
| NCI-H23 | 0.874 | 1.15 | 0.98 | 0.938 | 1.08 | 0.609 | 0.584 | 0.437 | 0.48 | 0.612 | 0.554 | 0.529 | 0.451 | 0.53 | 0.472 | 0.306 | 0.188 | 0.165 | 0.55 | 0.709 |
| NCI-H1944 | 0.849 | 0.913 | 0.897 | 0.47 | 0.822 | 1.16 | 1.38 | – | 1.05 | 1.27 | 1.26 | – | 1.18 | 0.351 | 0.341 | – | 0.234 | 0.151 | 1.18 | 1.05 |
| NCI-H520 | 0.748 | 0.677 | 0.721 | 0.503 | 0.725 | 0.736 | 0.925 | 0.336 | 0.531 | 0.877 | 0.916 | 0.889 | 0.701 | 0.372 | 0.287 | 0.195 | 0.17 | 0.117 | 0.777 | 0.934 |
| A549 | 1.01 | 0.883 | 0.948 | 0.987 | 0.385 | 0.824 | 0.804 | 0.655 | 0.0561 | 0.644 | 0.712 | 0.122 | 0.544 | 0.655 | 0.547 | 0.237 | 0.0721 | 0.124 | 0.357 | 0.57 |
| NCI-H460 | 0.912 | 0.955 | – | 1.04 | 0.0917 | 1.03 | 1.06 | 0.567 | 0.0138 | 1.02 | 0.713 | 0.537 | 0.0178 | 0.438 | 0.48 | 0.184 | 0.0352 | 0.0702 | 0.077 | 0.133 |
| EKVX | 0.971 | 0.726 | 0.698 | 0.821 | 1.03 | 1.12 | 0.997 | – | 0.827 | 1.19 | 1.02 | – | 0.962 | 0.477 | 0.465 | – | 0.389 | 0.174 | 0.899 | 0.962 |
| SK-MES-1 | 1.05 | 1.05 | 1.04 | 1.08 | 0.838 | 0.969 | 1.14 | 0.958 | 0.948 | 1.16 | 1.12 | 1.11 | 0.999 | 0.353 | 0.363 | 0.335 | 0.261 | 0.226 | 1.01 | 1.1 |
| EPLC-272H | 0.651 | 0.681 | 0.78 | – | 0.467 | 1.04 | 1.01 | – | 0.985 | 1.3 | 1.27 | – | 1.06 | 0.327 | 0.265 | 0.231 | 0.264 | 0.103 | 0.941 | 1.09 |
| NCI-H1563 | 0.88 | 0.826 | 0.806 | 0.826 | 0.569 | 0.865 | 0.725 | 0.675 | 0.464 | 1.19 | 1.14 | 0.995 | 0.664 | 0.635 | 0.704 | 0.595 | 0.387 | 0.318 | 0.774 | 0.894 |
| NCI-H2126 | 1.28 | 1.3 | 1.16 | 1.39 | 0.838 | 1.05 | 1.11 | 1.07 | 0.975 | 0.728 | 0.727 | 0.731 | 0.679 | 0.527 | 0.478 | 0.471 | 0.353 | 0.302 | 1.08 | 0.71 |
| LXF-289 | 0.998 | 1.02 | 0.974 | 0.402 | 0.902 | 0.805 | 0.882 | 0.399 | 0.725 | 0.963 | 1 | 0.903 | 0.949 | 0.798 | 0.787 | 0.524 | 0.157 | 0.0919 | 0.823 | 1.04 |
| NCI-H2009 | 1.24 | 1.17 | 1.07 | 1.18 | 1.04 | 1.07 | 1.02 | 1.02 | 0.697 | 1.24 | 1.14 | 1.19 | 0.804 | 1 | 0.844 | 0.618 | 0.114 | 0.0666 | 1.09 | 1.18 |
| NCI-H2405 | 1.03 | 1.08 | 1.04 | 0.952 | 1.03 | 0.827 | 0.949 | 0.549 | 0.821 | 1.03 | 0.898 | 0.897 | 0.757 | 0.536 | 0.521 | 0.34 | 0.306 | 0.172 | 0.843 | 0.993 |
| NCI-H1755 | 0.934 | 0.905 | 0.889 | 0.913 | 0.898 | 0.921 | 0.937 | 0.842 | 0.833 | 0.983 | 1.05 | 0.993 | 1.01 | 0.562 | 0.422 | 0.335 | 0.232 | 0.22 | 0.895 | 0.968 |
| HCC-78 | 0.596 | 0.503 | 0.573 | 0.602 | 0.589 | 0.357 | 0.36 | 0.243 | 0.328 | 0.566 | 0.548 | 0.437 | 0.398 | 0.179 | 0.204 | 0.207 | 0.095 | 0.126 | 0.358 | 0.502 |
| LOU-NH91 | 1.02 | 1.02 | 0.935 | – | 0.942 | 0.756 | 0.784 | 0.728 | 0.759 | 1 | 1.04 | 0.715 | 0.842 | 0.556 | 0.591 | 0.259 | 0.203 | 0.209 | 0.745 | 0.999 |
